Measurements published in ChEMBL document CHEMBL1201862, “PubChem BioAssay data set” (2004).
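Compound exposure: 48 hours, 5 concentrations, 96-well plates. Abbreviation: GI50, concentration required for 50% inhibition of growth.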 Active and inactive are the calls of the source. Cut-off read from the data, not from the text of the source: active = GI50 up to about 1.1 µM and inactive = higher.

Key:
Assay in all cases: growth of human tumour cells (NCI), 48 h
COLO 205 = tested on: COLO 205
DLD-1 = tested on: DLD-1
DMS-114 = tested on: DMS-114
HCT-116 = tested on: HCT-116
HCT-15 = tested on: HCT-15
HT-29 = tested on: HT-29
IGROV-1 = tested on: IGROV-1
LXFL 529 = tested on: LXFL 529
NCI-H226 = tested on: NCI-H226
OVCAR-4 = tested on: OVCAR-4
OVCAR-5 = tested on: OVCAR-5
OVCAR-8 = tested on: OVCAR-8
RPMI-8226 = tested on: RPMI-8226
CAKI-1 = tested on: CAKI-1
TK-10 = tested on: TK-10
LOX IMVI = tested on: LOX IMVI

Structure (SMILES)	GI50 (COLO 205)	GI50 (DLD-1)	GI50 (DMS-114)	GI50 (HCT-116)	GI50 (HCT-15)	GI50 (HT-29)	GI50 (IGROV-1)	GI50 (LXFL 529)	GI50 (NCI-H226)	GI50 (OVCAR-4)	GI50 (OVCAR-5)	GI50 (OVCAR-8)	GI50 (RPMI-8226)	GI50 (CAKI-1)	GI50 (TK-10)	GI50 (LOX IMVI)
N/N=c1\c2ccccc2c2ccc3c4ccccc4/c(=N\N)c3c12	> 100 µM (inactive)	> 100 µM (inactive)	> 100 µM (inactive)	> 100 µM (inactive)	> 100 µM	> 100 µM (inactive)	> 100 µM (inactive)	> 100 µM (inactive)	> 100 µM (inactive)	> 100 µM (inactive)	> 100 µM (inactive)	> 100 µM (inactive)	> 100 µM (inactive)	–	–	–
CO/C(=N\N=C\c1ccc(Cl)cc1)c1ccncc1	> 100 µM (inactive)	> 100 µM (inactive)	> 100 µM (inactive)	> 100 µM (inactive)	> 100 µM	> 100 µM (inactive)	> 100 µM (inactive)	> 100 µM (inactive)	59.7 µM (inactive)	> 100 µM (inactive)	> 100 µM (inactive)	> 100 µM (inactive)	> 100 µM (inactive)	> 100 µM (inactive)	> 100 µM (inactive)	–
S=P1(Oc2ccccc2)NNP2(=NP(N3CC3)(N3CC3)=NP(N3CC3)(N3CC3)=N2)NN1 (stereo not drawn)	> 100 µM (inactive)	> 100 µM (inactive)	> 100 µM (inactive)	> 100 µM (inactive)	> 100 µM	> 100 µM (inactive)	> 100 µM (inactive)	> 100 µM (inactive)	> 100 µM (inactive)	> 100 µM (inactive)	> 100 µM (inactive)	> 100 µM (inactive)	> 100 µM (inactive)	> 100 µM (inactive)	> 100 µM (inactive)	> 100 µM (inactive)
C#CCOCn1cnc2ncnc(Cl)c21	> 100 µM (inactive)	> 100 µM (inactive)	> 100 µM (inactive)	> 100 µM (inactive)	–	> 100 µM (inactive)	> 100 µM (inactive)	> 100 µM (inactive)	> 100 µM (inactive)	> 100 µM (inactive)	> 100 µM (inactive)	> 100 µM (inactive)	> 100 µM (inactive)	> 100 µM (inactive)	> 100 µM (inactive)	> 100 µM (inactive)
Cc1ccc(N2C(=O)N(c3ccc(C)cc3)C3(SC=NN3C)C2=O)cc1 (stereo not drawn)	91 µM (inactive)	67.6 µM (inactive)	31.2 µM (inactive)	46.6 µM (inactive)	–	32.4 µM (inactive)	> 100 µM (inactive)	64.1 µM (inactive)	72.8 µM (inactive)	95.5 µM (inactive)	–	> 100 µM (inactive)	49.2 µM (inactive)	83.2 µM (inactive)	66.4 µM (inactive)	32.3 µM (inactive)
Nc1c(-c2ccccc2[N+](=O)[O-])nc2ccccn12	> 100 µM (inactive)	> 100 µM (inactive)	> 100 µM (inactive)	> 100 µM (inactive)	> 100 µM	> 100 µM (inactive)	> 100 µM (inactive)	> 100 µM (inactive)	> 100 µM (inactive)	–	> 100 µM (inactive)	> 100 µM (inactive)	> 100 µM (inactive)	–	> 100 µM (inactive)	> 100 µM (inactive)
COC(=O)CCC(=O)CC(=O)C1=NS(=O)(=O)c2nc(S(N)(=O)=O)c(Cl)cc2N1	> 100 µM (inactive)	> 100 µM (inactive)	> 100 µM (inactive)	> 100 µM (inactive)	> 100 µM	> 100 µM (inactive)	> 100 µM (inactive)	> 100 µM (inactive)	> 100 µM (inactive)	> 100 µM (inactive)	> 100 µM (inactive)	> 100 µM (inactive)	> 100 µM (inactive)	> 100 µM (inactive)	> 100 µM (inactive)	70.5 µM (inactive)
CC1CCN(c2cc(-c3cc4ccccc4o3)oc(=O)c2C#N)CC1	> 100 µM (inactive)	> 100 µM (inactive)	> 100 µM (inactive)	> 100 µM (inactive)	> 100 µM	> 100 µM (inactive)	> 100 µM (inactive)	> 100 µM (inactive)	> 100 µM (inactive)	18.8 µM (inactive)	> 100 µM (inactive)	> 100 µM (inactive)	> 100 µM (inactive)	19.9 µM (inactive)	> 100 µM (inactive)	> 100 µM (inactive)
CC(C)COC(=O)N1N=NC2C3CC(=O)C(O3)C21 (stereo not drawn)	> 100 µM (inactive)	> 100 µM (inactive)	> 100 µM (inactive)	> 100 µM (inactive)	> 100 µM	> 100 µM (inactive)	> 100 µM (inactive)	> 100 µM (inactive)	–	> 100 µM (inactive)	> 100 µM (inactive)	> 100 µM (inactive)	> 100 µM (inactive)	> 100 µM (inactive)	22.9 µM (inactive)	> 100 µM (inactive)
CN(C)c1ccc(C=C2C(=O)OC(C)(C)OC2=O)cc1Br	> 100 µM (inactive)	> 100 µM (inactive)	> 100 µM (inactive)	48.9 µM (inactive)	–	> 100 µM (inactive)	–	> 100 µM (inactive)	> 100 µM (inactive)	> 100 µM (inactive)	> 100 µM (inactive)	> 100 µM (inactive)	> 100 µM (inactive)	> 100 µM (inactive)	> 100 µM (inactive)	> 100 µM (inactive)
CC(C)(C1=NC(C(C)(C)C)CO1)C1=N[C@@H](C(C)(C)C)CO1 (stereo partly drawn)	> 100 µM (inactive)	> 100 µM (inactive)	> 100 µM (inactive)	> 100 µM (inactive)	> 100 µM	> 100 µM (inactive)	> 100 µM (inactive)	> 100 µM (inactive)	> 100 µM (inactive)	> 100 µM (inactive)	> 100 µM (inactive)	> 100 µM (inactive)	> 100 µM (inactive)	–	> 100 µM (inactive)	> 100 µM (inactive)
CC(C)(C)c1cc(Cc2ccc(S(C)(=O)=O)cc2)c(O)c(C(C)(C)C)c1	–	17.5 µM (inactive)	13.5 µM (inactive)	14 µM (inactive)	16.9 µM	14.7 µM (inactive)	14.9 µM (inactive)	15.5 µM (inactive)	–	14.4 µM (inactive)	14.4 µM (inactive)	14.7 µM (inactive)	10.8 µM (inactive)	16.2 µM (inactive)	17.9 µM (inactive)	14.6 µM (inactive)
CCC1N2CCCCC2[C@@H]2c3[nH]c4ccccc4c3CCN12 (stereo partly drawn)	> 100 µM (inactive)	> 100 µM (inactive)	> 100 µM (inactive)	> 100 µM (inactive)	> 100 µM	> 100 µM (inactive)	> 100 µM (inactive)	> 100 µM (inactive)	–	> 100 µM (inactive)	> 100 µM (inactive)	> 100 µM (inactive)	> 100 µM (inactive)	> 100 µM (inactive)	> 100 µM (inactive)	–
CC(=O)OCc1nnn2c1C(OC(C)=O)CC2 (stereo not drawn)	> 100 µM (inactive)	> 100 µM (inactive)	> 100 µM (inactive)	> 100 µM (inactive)	> 100 µM	> 100 µM (inactive)	> 100 µM (inactive)	> 100 µM (inactive)	> 100 µM (inactive)	> 100 µM (inactive)	> 100 µM (inactive)	> 100 µM (inactive)	> 100 µM (inactive)	> 100 µM (inactive)	> 100 µM (inactive)	–
CCc1cccc(CC)c1NC1=CC(=O)C(=O)c2ccccc21	> 100 µM (inactive)	15.6 µM (inactive)	12.4 µM (inactive)	18.4 µM (inactive)	10.3 µM	2.06 µM (inactive)	15.1 µM (inactive)	19.4 µM (inactive)	23 µM (inactive)	13.7 µM (inactive)	17.1 µM (inactive)	16.7 µM (inactive)	40.2 µM (inactive)	18.9 µM (inactive)	23.9 µM (inactive)	9.84 µM (inactive)
Cc1cccc(NC(=O)C(=O)C(C(=O)c2ccccc2F)C2OC(=O)c3ccccc32)c1Cl (stereo not drawn)	20 µM (inactive)	27.9 µM (inactive)	17.5 µM (inactive)	20.3 µM (inactive)	22.4 µM	31.5 µM (inactive)	56.8 µM (inactive)	24.3 µM (inactive)	32.4 µM (inactive)	43.9 µM (inactive)	60 µM (inactive)	20.1 µM (inactive)	26.9 µM (inactive)	61.4 µM (inactive)	63 µM (inactive)	17.7 µM (inactive)
CC1(c2ccc(F)cc2)C(C#N)C(=O)NC(=O)C1C#N (stereo not drawn)	> 100 µM (inactive)	> 100 µM (inactive)	> 100 µM (inactive)	–	> 100 µM	> 100 µM (inactive)	> 100 µM (inactive)	> 100 µM (inactive)	> 100 µM (inactive)	> 100 µM (inactive)	> 100 µM (inactive)	> 100 µM (inactive)	> 100 µM (inactive)	> 100 µM (inactive)	> 100 µM (inactive)	> 100 µM (inactive)
O/N=C/c1ncccc1C1OCCO1	> 100 µM (inactive)	> 100 µM (inactive)	> 100 µM (inactive)	> 100 µM (inactive)	> 100 µM	> 100 µM (inactive)	> 100 µM (inactive)	> 100 µM (inactive)	> 100 µM (inactive)	> 100 µM (inactive)	> 100 µM (inactive)	> 100 µM (inactive)	–	> 100 µM (inactive)	> 100 µM (inactive)	> 100 µM (inactive)
CC/C=C\C/C=C\C/C=C\CCCCCCCC(=O)OCC	> 100 µM (inactive)	> 100 µM (inactive)	> 100 µM (inactive)	> 100 µM (inactive)	–	> 100 µM (inactive)	> 100 µM (inactive)	> 100 µM (inactive)	> 100 µM (inactive)	> 100 µM (inactive)	> 100 µM (inactive)	> 100 µM (inactive)	70.6 µM (inactive)	> 100 µM (inactive)	> 100 µM (inactive)	42.6 µM (inactive)
